# Measured values as given in BindingDB's records for doi:10.1021/jm00058a003 (Upjohn Laboratories, 1993).
# Target: 5-HT1A receptor (Bos taurus)
# Assay: In vitro binding affinity towards [3H]8-OH-DPAT-labeled 5-hydroxytryptamine 1A receptor sites in bovine hippocampus.
row,SMILES,Ki [nM]
1,"C=CC[C@@H]1c2c(cccc2OC)CC[C@H]1NCC1CC1 (relative stereo) [(trans)-(1-Allyl-8-methoxy-1,2,3,4-tetrahydro-naphthalen-2-yl)-cyclopropylmethyl-amine]",4.1
2,"C=CC[C@@H]1c2c(cccc2OC)CC[C@H]1NCCC (relative stereo) [(trans)-(1-Allyl-8-methoxy-1,2,3,4-tetrahydro-naphthalen-2-yl)-propyl-amine]",19
3,"CCCN[C@@H]1CCc2cccc(OC)c2[C@H]1CC1CC1 (relative stereo) [(trans)-(1-Cyclopropylmethyl-8-methoxy-1,2,3,4-tetrahydro-naphthalen-2-yl)-propyl-amine]",9.3
4,"C=CCN[C@@H]1CCc2ccccc2[C@H]1CC=C (relative stereo) [(trans)-Allyl-(1-allyl-1,2,3,4-tetrahydro-naphthalen-2-yl)-amine]",> 1000
5,"C=CCN[C@@H]1CCc2cccc(OC)c2[C@H]1CC1CC1 (relative stereo) [(trans)-Allyl-(1-cyclopropylmethyl-8-methoxy-1,2,3,4-tetrahydro-naphthalen-2-yl)-amine]",15
6,"C=CCN[C@@H]1CCc2cccc(O)c2[C@@H]1CC=C [8-Allyl-7-allylamino-5,6,7,8-tetrahydro-naphthalen-1-ol]",1
7,"C=CC[C@H]1c2c(O)cccc2CC[C@H]1NCCC [8-Allyl-7-propylamino-5,6,7,8-tetrahydro-naphthalen-1-ol]",0.5
8,"C=CC[C@H]1c2c(cccc2OC)CC[C@H]1NCCC [(1-Allyl-8-methoxy-1,2,3,4-tetrahydro-naphthalen-2-yl)-propyl-amine]",1.8
9,"CCCN[C@@H]1CCc2cccc(OC)c2[C@@H]1CC1CC1 [(1-Cyclopropylmethyl-8-methoxy-1,2,3,4-tetrahydro-naphthalen-2-yl)-propyl-amine]",15
10,"CCCN[C@@H]1CCc2cccc(OC)c2[C@@H]1CCC [(8-Methoxy-1-propyl-1,2,3,4-tetrahydro-naphthalen-2-yl)-propyl-amine]",11
11,"C=CCN[C@@H]1CCc2ccccc2[C@@H]1CC=C [Allyl-(1-allyl-1,2,3,4-tetrahydro-naphthalen-2-yl)-amine]",152
12,"C=CCN[C@@H]1CCc2cccc(OC)c2[C@@H]1CC1CC1 [Allyl-(1-cyclopropylmethyl-8-methoxy-1,2,3,4-tetrahydro-naphthalen-2-yl)-amine]",9.4
13,"CCCN(C)[C@@H]1CCc2cccc(OC)c2[C@@H]1CO [[8-Methoxy-2-(methyl-propyl-amino)-1,2,3,4-tetrahydro-naphthalen-1-yl]-methanol]",5

# Results, then the compound that gave them:
row,Ki [nM],SMILES
1,> 1000,"C=CC[C@@H]1c2ccccc2CC[C@H]1NCCC (relative stereo) [(trans)-(1-Allyl-1,2,3,4-tetrahydro-naphthalen-2-yl)-propyl-amine]"
2,> 1000,"C=CC[C@@H]1c2cccc(OC)c2CC[C@H]1NCCC (relative stereo) [(trans)-(1-Allyl-5-methoxy-1,2,3,4-tetrahydro-naphthalen-2-yl)-propyl-amine]"
3,174,"C=CC[C@H]1c2ccccc2CC[C@H]1NCCC [(1-Allyl-1,2,3,4-tetrahydro-naphthalen-2-yl)-propyl-amine]"
4,> 1000,"C=CC[C@H]1c2cccc(OC)c2CC[C@H]1NCCC [(1-Allyl-5-methoxy-1,2,3,4-tetrahydro-naphthalen-2-yl)-propyl-amine]"
5,2.9,"C=CC[C@H]1c2c(cccc2OC)CC[C@H]1NCC1CC1 [(1-Allyl-8-methoxy-1,2,3,4-tetrahydro-naphthalen-2-yl)-cyclopropylmethyl-amine]"
6,6.3,"C=CC[C@H]1c2c(cccc2OC)CC[C@H]1N(CCC)CCC [(1-Allyl-8-methoxy-1,2,3,4-tetrahydro-naphthalen-2-yl)-dipropyl-amine]"
7,5.4,"CCCN[C@@H]1CCc2cccc(OC)c2[C@@H]1CO [(8-Methoxy-2-propylamino-1,2,3,4-tetrahydro-naphthalen-1-yl)-methanol]"
